Measurements taken from patent US20260191923A1, “COMPOSITIONS” (GIVAUDAN SA, priority 2022, published 2026).

What was measured:
Type in all cases: cell-based
human gut microbiome [1] = experiment: Short term colonic simulation: changes in community composition by 16S-targeted Illumina sequencing (heat map, LEfSe, beta diversity); conditions: after 48 hours; ascorbic acid 1.67 g/L; comparator not stated
Description: The test products used in these experiments included a red acerola fruit powder containing 20% vitamin C and a green acerola fruit powder containing 34% vitamin C provided by Naturex-Givaudan. Commercial synthetic ascorbic acid and a 55:45 mixture of fructose and glucose served as relevant control groups. The test products contained a fraction of digestible compounds (sugar, for e.g.) that, in vivo, are absorbed in the small intestine following conversion to small molecules by digestive enzymes. […] Stock solutions of test products and controls were prepared and exposed to conditions simulating oral, gastric, and small intestinal passage. […]
Sampling was performed periodically with a syringe through a rubber septum. […] Changes in ammonium production were assessed by sampling at the start of incubation and after 48 hours. […]
The methodology applied involves primers that span 2 hypervariable regions (V3-V4) of the 16S rRNA gene, i.e. primers 341F-785R described in Bekliz et al (Bekliz, M., Pramateftaki, P., Battin, T. J. et al. Viral diversity is linked to bacterial community composition in alpine stream biofilms. ISME COMMUN. 2, 27 (2022). https://doi.org/10.1038/s43705-022-00112-9). […] Read assembly and cleanup was largely derived from the MiSeq SOP described by the Schloss lab. […]

human gut microbiome [2] = experiment: Short term colonic simulation: microbial metabolite (SCFA) production by capillary gas chromatography-FID; conditions: 48 hours colonic fermentation; acerola 3.5 g/L, sugar control 1.75 g/L, ascorbic acid 1.67 g/L; FIG. 1
Description: The test products used in these experiments included a red acerola fruit powder containing 20% vitamin C and a green acerola fruit powder containing 34% vitamin C provided by Naturex-Givaudan. Commercial synthetic ascorbic acid and a 55:45 mixture of fructose and glucose served as relevant control groups. The test products contained a fraction of digestible compounds (sugar, for e.g.) that, in vivo, are absorbed in the small intestine following conversion to small molecules by digestive enzymes. […] Stock solutions of test products and controls were prepared and exposed to conditions simulating oral, gastric, and small intestinal passage. Typically, a dialysis procedure is employed to simulate absorption of small molecules in the small intestine, but this step was omitted for these test products, as the dialysis procedure would lead to losses of compounds in acerola (polyphenols) that would reach the colon in vivo and exert an effect on the microbiome. A 48 hours colonic fermentation was performed in the presence of test compounds and relevant controls to determine the effect of the test products on the gut microbiome. […] Changes in ammonium production were assessed by sampling at the start of incubation and after 48 hours. […] Quantitative analysis of the SCFA was done by means of capillary gas chromatography, coupled with a flame ionization detector (FID). […]

human gut microbiome [3] = experiment: Short term colonic simulation (48 hours colonic fermentation): overall fermentative activity, pH and gas production; conditions: pre-digested products, fecal inoculum of a single human donor, triplicate; 0-6 hours; doses of Table 1
Description: The test products used in these experiments included a red acerola fruit powder containing 20% vitamin C and a green acerola fruit powder containing 34% vitamin C provided by Naturex-Givaudan. Commercial synthetic ascorbic acid and a 55:45 mixture of fructose and glucose served as relevant control groups. The test products contained a fraction of digestible compounds (sugar, for e.g.) that, in vivo, are absorbed in the small intestine following conversion to small molecules by digestive enzymes. […] Stock solutions of test products and controls were prepared and exposed to conditions simulating oral, gastric, and small intestinal passage. Typically, a dialysis procedure is employed to simulate absorption of small molecules in the small intestine, but this step was omitted for these test products, as the dialysis procedure would lead to losses of compounds in acerola (polyphenols) that would reach the colon in vivo and exert an effect on the microbiome. […] Changes in ammonium production were assessed by sampling at the start of incubation and after 48 hours. Analysis of microbial community structure was performed at the start of the incubation and after 48 hours. pH was measured in each reactor at each time point as a single repetition. Gas production was measured in the headspace of the fermentation vessels as a single repetition.

For `O=C1O[C@H]([C@@H](O)CO)C(O)=C1O` [Ascorbic acid, ascorbic acid], the “strongest enrichments (LEfSe), OTUs of the genera/families” value (human gut microbiome [1]) was “Bacteroides, Lachnoclostridium, GCA-900066575, Anaerostipes, Agathobacter, Oscillibacter, Alistipes, Lachnospiraceae, Flavonifractor, Coprococcus and Blautia”, the propionate production (human gut microbiome [2]) was “Each product, except ascorbic acid, stimulated propionate production” and the pH shift (human gut microbiome [3]) was “failed to produce a significant shift in pH”.
